Measured values reported in US12440481B2, “Esters and carbamates as modulators of sodium channels” (VERTEX PHARMACEUTICALS INCORPORATED, priority 2019, dated 2025).

Biological target: human NaV 1.8 (Homo sapiens, UniProt Q9Y5Y9)
Test: E-VIPR Assay for Detecting and Measuring NaV Inhibition Properties
Format: cell-based
Conditions: HEK cells expressing a truncated form of human NaV 1.8; HS = human serum; read-out: EVIPR HS IC50
Excerpt: E-VIPR Assay for Detecting and Measuring NaV Inhibition Properties
Sodium ion channels are voltage-dependent proteins that can be activated by inducing membrane voltage changes by applying electric fields. The electrical stimulation instrument and methods of use, referred to as E-VIPR, are described in International Publication No. WO 2002/008748 A3 and C.-J. Huang et al. Characterization of voltage-gated sodium channel blockers by electrical stimulation and fluorescence detection of membrane potential, 24 Nature Biotech. 439-46 (2006), both of which are incorporated by reference in their entirety. The instrument comprises a microtiter plate handler, an optical system for exciting the coumarin dye while simultaneously recording the coumarin and oxonol emissions, a waveform generator, a current- or voltage-controlled amplifier, and parallel electrode pairs that are inserted into assay plate wells. Under integrated computer control, this instrument passes user-programmed electrical stimulus protocols to cells within the wells of the microtiter plate.
16-20 hours prior to running the assay on E-VIPR, HEK cells expressing a truncated form of human NaV 1.8 with full channel activity were seeded into microtiter 384-well plates, pre-coated with matrigel, at a density of 25,000 cells per well. 2.5-5% KIR2.1 Bacmam virus was added to the final cell suspension before seeding into cell plates. HEK cells were grown in Dulbecco's Modified Eagle's Medium (DMEM) supplemented with 10% FBS (Fetal Bovine Serum, qualified; Sigma #F4135), 1% NEAA (Non-Essential Amino Acids, Gibco #11140), 1% HEPES (Gibco #15630), 1% Pen-Strep (Penicillin-Streptomycin; Gibco #15140) and 5 μg/ml Blasticidin (Gibco #R210-01). Cells were expanded in vented cap cell culture flasks, with 90-95% humidity and 5% CO2.
Reagents and Stock Solutions:
• 100 mg/mL Pluronic F-127 (Sigma #P2443), in dry DMSO • Compound Plates: Corning 384-well Polypropylene Round Bottom #3656 • Cell Plates: 384-well tissue culture treated plates (Greiner #781091-1B) • 2.5-5% KIR 2.1 Bacmam virus (produced in-house), prepared as described in Section 3.3 of J. A. Fornwald et al., Gene Expression in Mammalian Cells Using BacMam, a Modified Baculovirus System, 1350 Methods in Molecular Biology 95-116 (2016), the entire contents of which are incorporated by reference. The concentration used can be dependent on viral titer of each batch. • 5 mM DiSBAC6 (3), a voltage sensitive oxonol acceptor (CAS number 169211-44-3; 5-[3-(1,3-dihexylhexahydro-4,6-dioxo-2-thioxo-5-pyrimidinyl)-2-propen-1-ylidene]-1,3-dihexyldihydro-2-thioxo-4,6(1H,5H)-pyrimidinedione), in dry DMSO. The preparation of DiSBAC6 (3) is analogous to that of DiSBAC4 (3) as described in Voltage Sensing by Fluorescence Resonance Energy Transfer in Single Cells, Gonzalez, J. E. and Tsien, R. Y. (1995) Biophys. J. 69, 1272-1280. • 5 mM CC2-DMPE, a commercially available membrane-bound coumarin phospholipid FRET donor (ThermoFisher Scientific catalog number K1017, CAS number 393782-57-5; tetradecanoic acid, 1,1′-[(1R)-1-[8-(6-chloro-7-hydroxy-2-oxo-2H-1-benzopyran-3-yl)-3-hydroxy-3-oxido-8-oxo-2,4-dioxa-7-aza-3-phosphaoct-1-yl]-1,2-ethanediyl] ester) was prepared in dry DMSO. […]

human NaV 1.8, sequence (Q9Y5Y9 whole entry, looked up): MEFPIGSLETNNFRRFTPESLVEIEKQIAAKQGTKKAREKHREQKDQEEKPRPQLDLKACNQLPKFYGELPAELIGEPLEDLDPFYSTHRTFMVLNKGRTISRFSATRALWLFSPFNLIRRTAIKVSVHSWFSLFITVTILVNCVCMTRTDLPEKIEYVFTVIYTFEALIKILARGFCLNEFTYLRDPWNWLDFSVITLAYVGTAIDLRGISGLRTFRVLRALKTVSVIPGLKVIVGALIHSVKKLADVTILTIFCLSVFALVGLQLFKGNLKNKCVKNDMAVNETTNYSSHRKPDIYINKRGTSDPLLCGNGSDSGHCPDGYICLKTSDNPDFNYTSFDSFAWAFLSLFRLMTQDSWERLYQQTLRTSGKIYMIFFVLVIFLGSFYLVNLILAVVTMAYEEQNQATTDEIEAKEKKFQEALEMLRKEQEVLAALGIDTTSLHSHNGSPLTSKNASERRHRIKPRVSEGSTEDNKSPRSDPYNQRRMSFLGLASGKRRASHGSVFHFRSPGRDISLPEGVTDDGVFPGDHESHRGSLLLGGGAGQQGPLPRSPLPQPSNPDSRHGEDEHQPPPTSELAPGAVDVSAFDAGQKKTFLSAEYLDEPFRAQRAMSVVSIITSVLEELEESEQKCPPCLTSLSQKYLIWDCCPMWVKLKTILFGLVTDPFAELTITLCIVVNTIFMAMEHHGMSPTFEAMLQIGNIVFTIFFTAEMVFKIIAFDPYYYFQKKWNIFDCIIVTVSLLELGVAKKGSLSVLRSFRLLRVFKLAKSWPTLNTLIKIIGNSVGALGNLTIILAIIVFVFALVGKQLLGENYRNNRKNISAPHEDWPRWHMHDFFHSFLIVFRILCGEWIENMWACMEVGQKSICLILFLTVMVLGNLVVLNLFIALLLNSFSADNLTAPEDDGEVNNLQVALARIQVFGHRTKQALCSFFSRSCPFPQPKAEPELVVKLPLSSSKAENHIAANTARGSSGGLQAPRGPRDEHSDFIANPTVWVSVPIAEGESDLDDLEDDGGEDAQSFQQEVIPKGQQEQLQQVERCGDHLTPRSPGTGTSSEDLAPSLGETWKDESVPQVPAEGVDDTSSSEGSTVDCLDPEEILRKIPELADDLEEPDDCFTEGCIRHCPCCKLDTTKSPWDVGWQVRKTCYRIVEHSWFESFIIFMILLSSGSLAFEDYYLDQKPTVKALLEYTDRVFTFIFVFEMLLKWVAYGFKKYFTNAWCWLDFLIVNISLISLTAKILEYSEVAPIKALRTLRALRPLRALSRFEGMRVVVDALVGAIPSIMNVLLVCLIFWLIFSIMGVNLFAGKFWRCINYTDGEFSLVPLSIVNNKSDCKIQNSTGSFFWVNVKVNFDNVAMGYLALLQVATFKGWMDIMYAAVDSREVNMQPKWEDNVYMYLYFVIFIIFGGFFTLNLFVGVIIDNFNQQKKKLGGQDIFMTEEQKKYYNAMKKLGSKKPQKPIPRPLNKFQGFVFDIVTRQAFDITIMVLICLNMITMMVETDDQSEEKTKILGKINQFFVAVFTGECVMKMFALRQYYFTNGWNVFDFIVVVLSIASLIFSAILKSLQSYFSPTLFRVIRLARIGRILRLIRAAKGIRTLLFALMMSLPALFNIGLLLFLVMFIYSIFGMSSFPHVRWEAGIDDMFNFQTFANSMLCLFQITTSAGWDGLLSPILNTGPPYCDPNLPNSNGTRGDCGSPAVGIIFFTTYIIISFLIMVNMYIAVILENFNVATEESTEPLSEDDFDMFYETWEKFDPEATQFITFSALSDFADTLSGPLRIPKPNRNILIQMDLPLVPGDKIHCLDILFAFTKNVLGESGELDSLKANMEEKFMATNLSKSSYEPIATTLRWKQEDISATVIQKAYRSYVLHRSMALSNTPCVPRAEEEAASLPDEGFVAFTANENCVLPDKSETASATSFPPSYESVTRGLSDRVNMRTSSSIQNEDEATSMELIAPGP

Row | Compound | IC50 [µM]
1 | COC(=O)c1cc(NC(=O)c2c(Oc3ccc(OC(F)(F)F)cc3OC)ccc(C(F)(F)F)c2F)c(C2CC2)cn1 [Compound 26, methyl 5-cyclopropyl-4-(2-fluoro-6-(2-methoxy-4-(trifluoromethoxy)phenoxy)-3-(trifluoromethyl)benzamido)picolinate] | ≥ 1
2 | COC(=O)c1cc(NC(=O)c2c(Oc3ccc(OC(F)(F)F)c(F)c3OC)ccc(C(F)(F)F)c2F)c(C2CC2)cn1 [Compound 27, methyl 5-cyclopropyl-4-(2-fluoro-6-(3-fluoro-2-methoxy-4-(trifluoromethoxy)phenoxy)-3-(trifluoromethyl)benzamido)picolinate] | ≥ 1
3 | COC(=O)c1cc(NC(=O)c2c(Oc3ccc(OC(F)(F)F)c(F)c3OC)ccc(C(F)(F)F)c2C)c(C2CC2)cn1 [Compound 28, methyl 5-cyclopropyl-4-(6-(3-fluoro-2-methoxy-4-(trifluoromethoxy)phenoxy)-2-methyl-3-(trifluoromethyl)benzamido)picolinate] | ≥ 1
4 | COC(=O)c1nccc(NC(=O)c2c(Oc3ccc(OC(F)(F)F)cc3OC)ccc(C(F)(F)F)c2F)c1F [Compound 29, methyl 3-fluoro-4-(2-fluoro-6-(2-methoxy-4-(trifluoromethoxy)phenoxy)-3-(trifluoromethyl)benzamido)picolinate] | 0.5 to 1
5 | COC(=O)c1nccc(NC(=O)c2c(Oc3ccc(OC(F)(F)F)c(F)c3OC)ccc(C(F)(F)F)c2F)c1F [Compound 30] | 0.1 to 0.5
6 | COC(=O)c1nccc(NC(=O)c2c(Oc3ccc(OC(F)(F)F)c(F)c3OC)ccc(C(F)(F)F)c2C)c1F [Compound 31, methyl 3-fluoro-4-(6-(3-fluoro-2-methoxy-4-(trifluoromethoxy)phenoxy)-2-methyl-3-(trifluoromethyl)benzamido)picolinate] | ≥ 1
7 | COC(=O)c1nccc(NC(=O)c2c(Oc3ccc(OC(F)(F)F)c(F)c3OC)ccc(C(F)(F)F)c2C)c1C [Compound 32, methyl 4-(6-(3-fluoro-2-methoxy-4-(trifluoromethoxy)phenoxy)-2-methyl-3-(trifluoromethyl)benzamido)-3-methylpicolinate] | ≥ 1
8 | COC(=O)c1nccc(NC(=O)c2c(Oc3ccc(OC(F)(F)F)cc3OC)ccc(C(F)(F)F)c2C)c1C [Compound 33, methyl 4-(6-(2-methoxy-4-(trifluoromethoxy)phenoxy)-2-methyl-3-(trifluoromethyl)benzamido)-3-methylpicolinate] | ≥ 1
9 | COC(=O)c1nccc(NC(=O)c2c(Oc3ccc(OC(F)(F)F)c(F)c3OC)ccc(C(F)(F)F)c2F)c1C [Compound 34, methyl 4-(2-fluoro-6-(3-fluoro-2-methoxy-4-(trifluoromethoxy)phenoxy)-3-(trifluoromethyl)benzamido)-3-methylpicolinate] | ≥ 1
10 | COC(=O)c1cc(NC(=O)c2c(Oc3ccc(OC(F)(F)F)c(F)c3OC)ccc(C(F)(F)F)c2F)cc(C(=O)OC)n1 [Compound 35, dimethyl 4-(2-fluoro-6-(3-fluoro-2-methoxy-4-(trifluoromethoxy)phenoxy)-3-(trifluoromethyl)benzamido)pyridine-2,6-dicarboxylate] | 0.1 to 0.5
